Counter-ions that a name gives are not always drawn.
Assays:
Conditions in all cases: 72 h
[1] = test system: myeloid leukemia patient primary cells Pat.10; experiment: cell viability (% survival relative to DMSO control); higher = less cytotoxic
Method in brief: (§1)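 Mononuclear cells from patients with AML or CML were thawed, purified on Ficoll and placed in RPMI 1640 with 10% FBS at 10,000 cells/well on 384-well plates. The plates came pre-printed with 70 compounds at five tenfold concentrations spanning 1–10,000 nM, in duplicate, and cells were exposed for 72 h. CellTiter-Glo gave viability, scaled between DMSO wells and wells with 10 μM proteasome inhibitor. Where reported, area under the curve was obtained from log-logistic fits with four parameters using the drc and PharmacoGx R packages.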

[2] = test system: myeloid leukemia patient primary cells Pat.11; experiment: as above
Method in brief: as §1

[3] = test system: myeloid leukemia patient primary cells Pat.12; experiment: as above
Method in brief: as §1

[4] = test system: myeloid leukemia patient primary cells Pat.13; experiment: as above
Method in brief: as §1

[5] = test system: myeloid leukemia patient primary cells Pat.14; experiment: as above
Method in brief: as §1

[6] = test system: myeloid leukemia patient primary cells Pat.15; experiment: as above
Method in brief: as §1

[7] = test system: myeloid leukemia patient primary cells Pat.1; experiment: as above
Method in brief: as §1

[8] = test system: myeloid leukemia patient primary cells Pat.2; experiment: as above
Method in brief: as §1

[9] = test system: myeloid leukemia patient primary cells Pat.3; experiment: as above
Method in brief: as §1

[10] = test system: myeloid leukemia patient primary cells Pat.4; experiment: as above
Method in brief: as §1

[11] = test system: myeloid leukemia patient primary cells Pat.5; experiment: as above
Method in brief: as §1

[12] = test system: myeloid leukemia patient primary cells Pat.6; experiment: as above
Method in brief: as §1

[13] = test system: myeloid leukemia patient primary cells Pat.7; experiment: as above
Method in brief: as §1

[14] = test system: myeloid leukemia patient primary cells Pat.8; experiment: as above
Method in brief: as §1

[15] = test system: myeloid leukemia patient primary cells Pat.9; experiment: as above
Method in brief: as §1

KU-812 = experiment: cell viability (% survival relative to DMSO control, bortezomib = 0%); higher = less cytotoxic
Method in brief: (§2)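 Reported values are percent survival from duplicate wells, averaged. Fifteen myeloid leukaemia cell lines were treated in 384-well plates with compounds at 1, 10, 100, 1000 or 10000 nM for 72 h at 37 °C in 5% CO2. Signals from CellTiter-Glo luminescence were scaled with vehicle as 100% and a 10 µM positive control as 0%.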

Mono-Mac-6 = experiment: as above
Method in brief: as §2

NOMO-1 = experiment: as above
Method in brief: as §2

THP-1 = experiment: as above
Method in brief: as §2

Compound `O=C(Oc1cccc(F)c1OC(=O)c1cccc(O)c1)c1cccc(O)c1` [WZB117] has a cell viability ([1]; 1 nM) of 70.4%, a cell viability ([1]; 10 nM) of 90.9% and a cell viability ([1]; 100 nM) of 74.7%. For the same compound, the cell viability ([1]; 1000 nM) was 54.5%, the cell viability ([1]; 10000 nM) was 31.5% and the cell viability ([2]; 1 nM) was > 100%. For the same compound, the cell viability ([2]; 10 nM) was 94.1%, the cell viability ([2]; 100 nM) was > 100% and the cell viability ([2]; 1000 nM) was 95.1%. For the same compound, the cell viability ([2]; 10000 nM) was 75.4%, the cell viability ([3]; 1 nM) was 98.4% and the cell viability ([3]; 10 nM) was 92.8%. The cell viability ([3]; 100 nM) was 95.5%, the cell viability ([3]; 1000 nM) was 86.4% and the cell viability ([3]; 10000 nM) was 57%. The cell viability ([4]; 1 nM) was 94.5%, the cell viability ([4]; 10 nM) was 86.2% and the cell viability ([4]; 100 nM) was 78.5%. It also gave a cell viability ([4]; 1000 nM) of 91%, a cell viability ([4]; 10000 nM) of 63.9% and a cell viability ([5]; 1 nM) of 97.9%. It also gave a cell viability ([5]; 10 nM) of 61.5%, a cell viability ([5]; 100 nM) of 74% and a cell viability ([5]; 1000 nM) of 90.2%. The cell viability ([5]; 10000 nM) was 5.34%, the cell viability ([6]; 1 nM) was 96.4% and the cell viability ([6]; 10 nM) was 78.9%. The cell viability ([6]; 100 nM) was 86.1%, the cell viability ([6]; 1000 nM) was 75.7% and the cell viability ([6]; 10000 nM) was 61.3%. The cell viability ([7]; 1 nM) was 98%, the cell viability ([7]; 10 nM) was 81.2% and the cell viability ([7]; 100 nM) was 78%. It also gave a cell viability ([7]; 1000 nM) of 88.7%, a cell viability ([7]; 10000 nM) of 47.3% and a cell viability ([8]; 1 nM) of 99.7%. It also gave a cell viability ([8]; 10 nM) of 83.5%, a cell viability ([8]; 100 nM) of 90.5% and a cell viability ([8]; 1000 nM) of 93.6%. The cell viability ([8]; 10000 nM) was 77.1%, the cell viability ([9]; 1 nM) was 96.7% and the cell viability ([9]; 10 nM) was 71.3%. For the same compound, the cell viability ([9]; 100 nM) was 83%, the cell viability ([9]; 1000 nM) was 72.5% and the cell viability ([9]; 10000 nM) was < 0%. For the same compound, the cell viability ([10]; 1 nM) was 94.5%, the cell viability ([10]; 10 nM) was 82.1% and the cell viability ([10]; 100 nM) was 85.2%. For the same compound, the cell viability ([10]; 1000 nM) was 99%, the cell viability ([10]; 10000 nM) was 17.3% and the cell viability ([11]; 1 nM) was 96.4%. It also gave a cell viability ([11]; 10 nM) of 23.7%, a cell viability ([11]; 100 nM) of 4.78% and a cell viability ([11]; 1000 nM) of 26.1%. It also gave a cell viability ([11]; 10000 nM) of 3.37%, a cell viability ([12]; 1 nM) of 96.3% and a cell viability ([12]; 10 nM) of 87.9%. For the same compound, the cell viability ([12]; 100 nM) was 87.1%, the cell viability ([12]; 1000 nM) was 93.3% and the cell viability ([12]; 10000 nM) was 62.6%. For the same compound, the cell viability ([13]; 1 nM) was 89.6%, the cell viability ([13]; 10 nM) was 97.1% and the cell viability ([13]; 100 nM) was 85.6%. The cell viability ([13]; 1000 nM) was 87.9%, the cell viability ([13]; 10000 nM) was 8.3% and the cell viability ([14]; 1 nM) was 95.5%. For the same compound, the cell viability ([14]; 10 nM) was 67.8%, the cell viability ([14]; 100 nM) was 79.7% and the cell viability ([14]; 1000 nM) was 51.9%. It also gave a cell viability ([14]; 10000 nM) of 11%, a cell viability ([15]; 1 nM) of 60.3% and a cell viability ([15]; 10 nM) of 27.8%. For the same compound, the cell viability ([15]; 100 nM) was 46.5%, the cell viability ([15]; 1000 nM) was 59.5% and the cell viability ([15]; 10000 nM) was 2.92%. The cell viability (KU-812; 1 nM) was 99.1%, the cell viability (KU-812; 10 nM) was 103% and the cell viability (KU-812; 100 nM) was 90.9%. For the same compound, the cell viability (KU-812; 1000 nM) was 99.9%, the cell viability (KU-812; 10000 nM) was 9.71% and the cell viability (Mono-Mac-6; 1 nM) was 96.6%. It also gave a cell viability (Mono-Mac-6; 10 nM) of 104%, a cell viability (Mono-Mac-6; 100 nM) of 99.7% and a cell viability (Mono-Mac-6; 1000 nM) of 101%. For the same compound, the cell viability (Mono-Mac-6; 10000 nM) was 16.9%, the cell viability (NOMO-1; 1 nM) was 95.5% and the cell viability (NOMO-1; 10 nM) was 94.3%. For the same compound, the cell viability (NOMO-1; 100 nM) was 94.1%, the cell viability (NOMO-1; 1000 nM) was 111% and the cell viability (NOMO-1; 10000 nM) was 82.1%. The cell viability (THP-1; 1 nM) was 101%, the cell viability (THP-1; 10 nM) was 102% and the cell viability (THP-1; 100 nM) was 101%. The cell viability (THP-1; 1000 nM) was 108% and the cell viability (THP-1; 10000 nM) was 64.9%.

`CC(C)(Cc1ccccc1)NCC(O)c1ccc(O)c(NS(C)(=O)=O)c1` (stereo not given) [Zinterol hydrochloride] was tested, and the cell viability ([1]; 1 nM) was 61%, the cell viability ([1]; 10 nM) was 94.8% and the cell viability ([1]; 100 nM) was 38.2%. The cell viability ([1]; 1000 nM) was > 100%, the cell viability ([1]; 10000 nM) was > 100% and the cell viability ([2]; 1 nM) was 95.7%. For the same compound, the cell viability ([2]; 10 nM) was > 100%, the cell viability ([2]; 100 nM) was > 100% and the cell viability ([2]; 1000 nM) was 96.2%. For the same compound, the cell viability ([2]; 10000 nM) was > 100%, the cell viability ([3]; 1 nM) was 90.2% and the cell viability ([3]; 10 nM) was 98.3%. The cell viability ([3]; 100 nM) was 93.9%, the cell viability ([3]; 1000 nM) was 99% and the cell viability ([3]; 10000 nM) was 97.5%. The cell viability ([4]; 1 nM) was 96.7%, the cell viability ([4]; 10 nM) was 99.8% and the cell viability ([4]; 100 nM) was 92.6%. The cell viability ([4]; 1000 nM) was > 100%, the cell viability ([4]; 10000 nM) was > 100% and the cell viability ([5]; 1 nM) was 73.4%. The cell viability ([5]; 10 nM) was 87.2%, the cell viability ([5]; 100 nM) was 91.3% and the cell viability ([5]; 1000 nM) was 90.7%. For the same compound, the cell viability ([5]; 10000 nM) was 75.6%, the cell viability ([6]; 1 nM) was 87% and the cell viability ([6]; 10 nM) was > 100%. It also gave a cell viability ([6]; 100 nM) of 95.8%, a cell viability ([6]; 1000 nM) of 95.8% and a cell viability ([6]; 10000 nM) of 68.9%. The cell viability ([7]; 1 nM) was 89.4%, the cell viability ([7]; 10 nM) was > 100% and the cell viability ([7]; 100 nM) was 98.6%. The cell viability ([7]; 1000 nM) was 94.8%, the cell viability ([7]; 10000 nM) was > 100% and the cell viability ([8]; 1 nM) was 85.5%. For the same compound, the cell viability ([8]; 10 nM) was 96.4%, the cell viability ([8]; 100 nM) was 86% and the cell viability ([8]; 1000 nM) was 99.7%. The cell viability ([8]; 10000 nM) was 93%, the cell viability ([9]; 1 nM) was 84.7% and the cell viability ([9]; 10 nM) was > 100%. It also gave a cell viability ([9]; 100 nM) of 93.4%, a cell viability ([9]; 1000 nM) of 90.2% and a cell viability ([9]; 10000 nM) of 87.3%. The cell viability ([10]; 1 nM) was 87.7%, the cell viability ([10]; 10 nM) was 94.7% and the cell viability ([10]; 100 nM) was 82.8%. For the same compound, the cell viability ([10]; 1000 nM) was 93.3%, the cell viability ([10]; 10000 nM) was 97.3% and the cell viability ([11]; 1 nM) was 17%. For the same compound, the cell viability ([11]; 10 nM) was > 100%, the cell viability ([11]; 100 nM) was 73% and the cell viability ([11]; 1000 nM) was 99.9%. For the same compound, the cell viability ([11]; 10000 nM) was 93.9%, the cell viability ([12]; 1 nM) was > 100% and the cell viability ([12]; 10 nM) was > 100%. The cell viability ([12]; 100 nM) was > 100%, the cell viability ([12]; 1000 nM) was > 100% and the cell viability ([12]; 10000 nM) was > 100%. For the same compound, the cell viability ([13]; 1 nM) was 54.3%, the cell viability ([13]; 10 nM) was > 100% and the cell viability ([13]; 100 nM) was 76.6%. For the same compound, the cell viability ([13]; 1000 nM) was > 100%, the cell viability ([13]; 10000 nM) was > 100% and the cell viability ([14]; 1 nM) was 88.5%. For the same compound, the cell viability ([14]; 10 nM) was 96.4%, the cell viability ([14]; 100 nM) was > 100% and the cell viability ([14]; 1000 nM) was 85.3%. For the same compound, the cell viability ([14]; 10000 nM) was 85.5%, the cell viability ([15]; 1 nM) was 79.2% and the cell viability ([15]; 10 nM) was 79.5%. It also gave a cell viability ([15]; 100 nM) of 67.4%, a cell viability ([15]; 1000 nM) of 74.7% and a cell viability ([15]; 10000 nM) of 87.2%. For the same compound, the cell viability (KU-812; 1 nM) was 113%, the cell viability (KU-812; 10 nM) was 93.9% and the cell viability (KU-812; 100 nM) was 106%. For the same compound, the cell viability (KU-812; 1000 nM) was 87.1%, the cell viability (KU-812; 10000 nM) was 97.6% and the cell viability (Mono-Mac-6; 1 nM) was 72.2%. It also gave a cell viability (Mono-Mac-6; 10 nM) of 51.5%, a cell viability (Mono-Mac-6; 100 nM) of 49% and a cell viability (Mono-Mac-6; 1000 nM) of 48.6%. It also gave a cell viability (Mono-Mac-6; 10000 nM) of 50.1%, a cell viability (NOMO-1; 1 nM) of 107% and a cell viability (NOMO-1; 10 nM) of 107%. It also gave a cell viability (NOMO-1; 100 nM) of 101%, a cell viability (NOMO-1; 1000 nM) of 98.6% and a cell viability (NOMO-1; 10000 nM) of 97.4%. The cell viability (THP-1; 1 nM) was 109%, the cell viability (THP-1; 10 nM) was 101% and the cell viability (THP-1; 100 nM) was 111%. The cell viability (THP-1; 1000 nM) was 103% and the cell viability (THP-1; 10000 nM) was 102%.

From the supplement of paper PMC8671470
